This test deals with Coagulation factor X (Homo sapiens, UniProt P00742). The test is described as follows: Inhibition of human Coagulation factor X was determined.
Chain of Coagulation factor X (P00742 41-179 limits assumed): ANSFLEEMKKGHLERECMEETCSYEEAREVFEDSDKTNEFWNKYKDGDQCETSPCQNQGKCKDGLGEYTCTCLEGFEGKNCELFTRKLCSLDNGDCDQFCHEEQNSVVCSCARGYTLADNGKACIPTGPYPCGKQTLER
Chain of Coagulation factor X (P00742 235-488 limits assumed): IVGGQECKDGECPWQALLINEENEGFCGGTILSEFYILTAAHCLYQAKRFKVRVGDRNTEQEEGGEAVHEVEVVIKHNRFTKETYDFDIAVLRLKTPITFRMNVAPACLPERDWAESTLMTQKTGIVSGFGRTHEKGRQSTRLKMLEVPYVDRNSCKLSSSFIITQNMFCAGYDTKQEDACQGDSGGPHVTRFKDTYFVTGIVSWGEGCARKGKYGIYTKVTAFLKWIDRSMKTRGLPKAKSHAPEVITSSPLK

For orientation: Ki means the equilibrium dissociation constant of an inhibitor or competing ligand from its target. Low values mean higher affinity, high ones lower affinity. Regarding `Cc1c(F)c(Oc2cccc(CC(=O)C(C)C)c2)nc(Oc2cccc(C(=N)N)c2)c1F`, the Ki came to 2.1 µM. The molecule `CC(=O)Cc1cccc(Oc2nc(Oc3cccc(C(=N)N)c3)c(F)c(C)c2F)c1` yielded a Ki of 1.4 µM. In the case of `CN1CC(C)(C)N=C1c1cccc(Oc2cc(C(=O)O)cc(Oc3cc(C(=N)N)ccc3O)n2)c1` it was 0.81 µM. The molecule `Cc1c(F)c(Oc2cccc(C(=N)N)c2)nc(Oc2cccc(N3CCCCC3)c2)c1F` came in with a Ki of 0.65 µM.

These data come from ChEMBL document CHEMBL1145939, “Analyses of activity for factor Xa inhibitors based on Monte Carlo simulations” (J Med Chem, 2003).
